The values below come from patent US11730686B2, “Cosmetic skincare compositions” (THE BOOTS COMPANY PLC, priority 2017, dated 2023).

In the assay the test system is Interleukin-6 (IL-6). The assay can be described thus: Interleukin-6 (IL-6) assay: UV-stressed skin cells, IL-6 ELISA of media supernatant. It is filed as cell-based. Conditions: FIG. 2; active alone at 0.0001% by weight of the composition; skin cells (keratinocytes or fibroblasts), UV dose 61,500 Joules/m^2. The protocol: Interleukin-6 (IL-6) Assay Interleukin-6 (IL-6) bioactivity in skin cells was measured. IL-6 is a cytokine and used as a biomarker for inflammation. Skin cells (keratinocytes or fibroblasts) were placed under UV stress to induce an IL-6 response in the presence of an active or blend of actives to determine the activity of that active or blend of actives in inhibiting an IL-6 response. Skin cells (keratinocytes or fibroblasts) were taken from culture, seeded in a 96-well plate at a density of 5000 cells per well in cell growth media with supplements and left to incubate for 24 hours at 37° C. Determination of cell number for the purpose of plating was performed in accordance with standard methods known in the art. After incubation, the cell growth media was replaced with 100 μl of PBS without calcium and magnesium and containing the relevant concentration of active(s) required. Controls include untreated irradiated and non-irradiated samples which require 100 μl pure PBS without calcium and magnesium or containing a maximum of 0.1%. Dimethyl sulfoxide (DMSO) was used where necessary to dissolve the active(s). Salicylic acid is the positive control for this assay. The cells were incubated with the actives for 30 minutes at 37° C. before being irradiated with a UV dose of 61,500 Joules/m^2. […]
For orientation: An ELISA detects its analyte on a solid surface through an enzyme-linked reagent.

`CCCCCCCCCCCCCC[C@@H](O)[C@@H](O)[C@@H](N)CO.Cl` [phytosphingosine hydrochloride]: the “inhibited IL-6 activity” value stood at 58%.
